In publication PMC9911168, “Cytotoxic and pro-apoptotic effects of botanical drugs derived from the indigenous cultivated medicinal plant Paris polyphylla var. yunnanensis” (Frontiers in Pharmacology, 2023):
“And” between values parts separate entries of the source, which are not always exact repeats. Identical values can stand only once. “Also recorded” adds a separate entry of the source. Like-named read-outs stand apart in the source and are kept apart here.

How the values were obtained:
Assay type in all cases: cell-based, human
A549 = test: MTS cell viability assay, A549; conditions: NSCLC cell line A549, MTS, 48 h; for IC50: read-out: IC50 (±SD) A549
Procedure: (§1) The effects of the extracts and isolated saponins on cell growth were evaluated by the MTS assay (3-(4,5-dimethylthiazol-2-yl)-5(3-carboxymethoxyphenyl)-2-(4-sulfopheny)-2H-tetrazolium; Promega, Madison, WI, United States) on human tumor cell lines ([Mosmann, 1983]; [Cory et al., 1991]; [Malich et al., 1997]). In a test experiment of cell inhibition, the cell inhibition effects of six crude extracts (100 μg/mL) and six isolated saponins (40 μM) were roughly measured to ascertain whether to measure the IC50 value by MTS assay.
(§2) Each well of a 96-well plate (Multiskan Fc, Therm) was seeded with 100 μL cells at a density of 3,000–5,000 cells per well, with the cell suspension containing 10% (v/v) fetal bovine serum (DMEM or RMPI1640, Biological Industries, Kibbutz Beit-Haemek, Israel). After 12–24 h of inoculation and culture at 37°C, the extracts or saponins were added at the indicated concentrations after being dissolved in dimethyl sulfoxide (DMSO, Biological Industries, Kibbutz Beit-Haemek, Israel) in a final volume of 200 μL per well, each in triplicate. The six crude extracts were added at concentrations of 100, 20, 4, 0.8, and 0.16 μg/mL; the six isolated saponins were added at concentrations of 10, 5, 2.5, 1.25, 0.625, and 0.3125 μM. After culture for 48 h at 37°C, 20 μL of MTS solution and 100 μL of DMEM were added to each well; three blank wells were set aside with 20 μL MTS solution and 100 μL DMEM. After an incubation for another 2–4 h, the absorbance at 492 nm was measured. Cisplatin and Paclitaxel (MeilunBio) were used as a positive control in each experiment. The cell growth curve was drawn with the concentration as the abscissa and the cell survival rate as the ordinate. The IC50 value of each saponin was calculated by the two-point method ([Reed and Muench, 1938]).

BEAS-2B = test: MTS cell viability assay, normal lung cell BEAS-2B; conditions: normal lung cell BEAS-2B, MTS, read-out: IC50 (±SD) BEAS-2B
Procedure: (§3) Three human liver cancer cell lines (SMMC-7721, HepG2, and SK-HEP-1) and the non-small-cell lung cancer (NSCLC) cell line A549 were obtained from ATCC (Manassas, VA, United States). Normal human cell lines (liver cell line LO2 and lung cell line BEAS-2B) were obtained from ATCC (Manassas, VA, United States). Cells were cultured in RMPI-1640 or DMEM medium (Biological Industries, Kibbutz Beit-Haemek, Israel) supplemented with 10% (v/v) fetal bovine serum (Biological Industries) at 37°C in a humidified atmosphere with 5% (v/v) CO2.
as §1, §2

SK-HEP-1 = test: MTS cell viability assay, SK-HEP-1; conditions: liver cancer cell line SK-HEP-1, MTS, 48 h; for IC50: read-out: IC50 (±SD) SK-HEP-1
Procedure: as §1, §2

SMMC-7721 = test: MTS cell viability assay, SMMC-7721; conditions: liver cancer cell line SMMC-7721, MTS, 48 h; for IC50: read-out: IC50 (±SD) SMMC-7721
Procedure: as §1, §2

LO2 = test: MTS cell viability assay, normal liver cell LO2; conditions: normal liver cell LO2, MTS, read-out: IC50 (±SD) LO2
Procedure: as §3, §1, §2

HepG2 = test: MTS cell viability assay, HepG2; conditions: liver cancer cell line HepG2, MTS, 48 h; for IC50: read-out: IC50 (±SD) HepG2
Procedure: as §1, §2

A549 cells [1] = test: Apoptosis by annexin V-FITC/PI staining, A549; conditions: A549, saponins 5 μM, Figure 7
Procedure: (§4) Double staining with annexin V-fluorescein isothiocyanate (FITC) and PI was used to determine the effects of the six saponins on cell apoptosis by flow cytometry ([Homburg et al., 1995]; [Vermes et al., 1995]; [Casciola-Rosen et al., 1996]). The effects of the six isolated saponins on apoptosis were determined using an annexin V-FITC apoptosis kit (BD, Pharmingen); the chemotherapy drug doxorubicin (DOX, Beyotime Institute of Biotechnology, Shanghai, China) was used as the positive control. Cells were cultured in six-well plates at a density of 3 × 10^5 cells per well for 24 h before being treated with each of the six isolated saponins at the indicated concentrations for 24 h. The cells were collected, centrifuged, and washed twice with ice-cold phosphate-buffered saline (PBS). The cells were stained with annexin V-FITC and PI for 15 min in the dark at room temperature before analysis by flow cytometry (BD, FACSCelesta, America). Annexin V-FITC^+ and PI^+ (Q2) were considered late-stage apoptotic cells, while annexin V-FITC^+ and PI^− (Q3) cells were considered early-stage apoptotic cells. Annexin V-FITC^– and PI^+ (Q1) were necrotic or mechanically damaged cells, and annexin V-FITC^– and PI^− (Q4) cells were healthy living cells.

HepG2 cells [2] = test: Apoptosis by annexin V-FITC/PI staining, HepG2; conditions: HepG2, saponins 5 μM, Figure 7
Procedure: as §4

HepG2 cells [3] = test: Cell cycle analysis (PI staining, flow cytometry), HepG2; conditions: HepG2, 24 h, 1 μM
Procedure: (§5) Cell cycle distribution was determined by propidium iodide (PI, BD, Pharmingen) staining ([Kong et al., 2016]; [Wei et al., 2021]). Briefly, three cancer cell lines were cultured in six-well plates at a density of 3 × 10^5 cells per well for 24 h before treatment with each of the six isolated saponins at the indicated concentrations for 24 h. The cells were collected, centrifuged, and washed twice with ice-cold PBS. Cells were fixed in 70% (v/v) ice-cold ethanol at 4°C overnight and washed again in PBS twice. The cells were incubated with 100 μL RNase A at 37°C for 30 min in the dark, after which 400 μL PI was added to the cells with RNase A in the dark at 4°C for 15 min. The cell cycle stage was analyzed by flow cytometry (BD, FACSCelesta, United States) with FLOWJO software (FlowJo, Ashland, OR, United States).

A549 cells [4] = test: Cell cycle analysis (PI staining, flow cytometry), A549; conditions: A549, 24 h; saponins 1 and 5 at 0.5 μM, other four at 1 μM
Procedure: as §5

SMMC-7721 cells = test: Apoptosis by annexin V-FITC/PI staining, SMMC-7721; conditions: SMMC-7721, saponins 5 μM, Figure 7
Procedure: as §4

Molecule	IC50 (A549; Homo sapiens)	IC50 (BEAS-2B; Homo sapiens) [nM]	IC50 (SK-HEP-1; Homo sapiens, SK-HEP1)	IC50 (SMMC-7721; Homo sapiens)	IC50 (LO2; Homo sapiens, L02) [nM]	IC50 (HepG2; Homo sapiens)	apoptosis rate (induction of apoptosis, in words) (A549 cells [1])	apoptosis rate (induction of apoptosis, in words) (HepG2 cells [2])	cell cycle phase with increased proportion of cells compared to DMSO control (A549 cells [4])	other results
N.N.[Cl][Pt][Cl] [Cisplatin, reference compound]	–	–	–	–	–	–	–	–	–	IC50 (±SD) A549 (A549): 16.74 ± 0.68 µg/mL; IC50 (A549): 26100 ± 520 nM; IC50 (BEAS-2B): > 40000 nM; IC50 (±SD) SK-HEP-1 (SK-HEP-1): 8.79 ± 0.49 µg/mL; IC50 (SK-HEP-1): 21000 ± 710 nM; IC50 (±SD) SMMC-7721 (SMMC-7721): 5.05 ± 0.12 µg/mL; IC50 (SMMC-7721): 17800 ± 570 nM; IC50 (LO2): 13800 ± 480 nM; IC50 (±SD) HepG2 (HepG2): 1.90 ± 0.13 µg/mL; IC50 (HepG2): 5670 ± 100 nM
CC(=O)O[C@H]1C(=O)[C@@]2(C)[C@H]([C@H](OC(=O)c3ccccc3)[C@]3(O)C[C@H](OC(=O)[C@H](O)[C@@H](NC(=O)c4ccccc4)c4ccccc4)C(C)=C1C3(C)C)[C@]1(OC(C)=O)CO[C@@H]1C[C@@H]2O [Paclitaxel, reference compound]	< 0.01 µg/mL and < 10 nM	> 5000	< 0.01 µg/mL and < 10 nM	0.12 µg/mL and 180 nM	< 10	< 0.01 µg/mL and < 10 nM	–	–	–	–
CC1CCC2(OC1)OC1CC3C4CC=C5CC(OC6OC(CO)C(OC7OC(CO)C(O)C7O)C(O)C6OC6OC(C)C(O)C(O)C6O)CCC5(C)C4CCC3(C)C1(O)C2C [saponin 2, pennogenin-3-O-α-L-arabinofuranosyl-(1→4)-[α-L-rhamnopyranosyl-(1→2)]-β-D-glycopyranoside]	1250 ± 20 nM	4950 ± 40	1580 ± 80 nM	1880 ± 70 nM	2330 ± 100	2140 ± 10 nM	strong apoptosis	next	S and G2/M phases	cell cycle phase with increased proportion of cells compared to DMSO control (HepG2 cells [3]): S and G2/M phases
CC1CCC2(OC1)OC1CC3C4CC=C5CC(OC6OC(CO)C(OC7OC(C)C(O)C(O)C7O)C(O)C6OC6OC(C)C(O)C(O)C6O)CCC5(C)C4CCC3(C)C1C2C [saponin 3, diosgenin-3-O-α-L-rhamnopyranosyl-(1→2)-[α-L-rhamnopyranosyl-(1→4)]-β-D-glucopyranoside]	1690 ± 40 nM	3070 ± 190	1800 ± 70 nM	2560 ± 80 nM	3780 ± 180	3800 ± 50 nM	–	–	G0/G1 phase	increase of proportion of cells in S phase compared to DMSO control (HepG2 cells [3]): 27.5%
CC1CCC2(OC1)OC1CC3C4CC=C5CC(OC6OC(CO)C(OC7OC(CO)C(O)C7O)C(O)C6OC6OC(C)C(O)C(O)C6O)CCC5(C)C4CCC3(C)C1C2C [saponin 4, diosgenin-3-O-α-L-arabinofuranosyl-(1→4)-[α-L-rhamnopyranosyl-(1→2)]-β-D-glucopyranoside]	580 ± 10 nM	1820 ± 90	660 ± 40 nM	720 ± 20 nM	850 ± 10	1590 ± 30 nM	–	–	increase in the proportion of cells at the G2/M phase	increase of proportion of cells in the G2/M phase compared to DMSO control (HepG2 cells [3]): 17.2%
CC1CCC2(OC1)OC1CC3C4CC=C5CC(OC6OC(CO)C(OC7OC(C)C(OC8OC(C)C(O)C(O)C8O)C(O)C7O)C(O)C6OC6OC(C)C(O)C(O)C6O)CCC5(C)C4CCC3(C)C1(O)C2C [saponin 5, pennogenin 3-O-α-L-rhamnopyranosyl-(1→2)-[α-L-rhamnopyranosyl-(1→4)-α-L-rhamnopyranosyl-(1→4)]-β-D-glucopyranoside]	900 ± 10 nM	940 ± 30	940 ± 60 nM	1200 ± 100 nM	900 ± 20	1570 ± 10 nM	stronger apoptosis than the positive control DOX	highest apoptosis rate; also recorded: stronger apoptosis than the positive control DOX	S phase	apoptosis rate (induction of apoptosis, in words) (SMMC-7721 cells): substantial induction of apoptosis; also recorded: stronger apoptosis than the positive control DOX; apoptosis rate (induction of apoptosis, in words) (A549 cells [1]; listed as Saponin 5): strong apoptosis; cell cycle phase with increased proportion of cells compared to DMSO control (HepG2 cells [3]): S and G2/M phases
pennogenin-3-O-α-L-rhamnopyranosyl-(1→2)-[α-L-rhamnopyranosyl-(1→4)]-β-D-glucopyranoside [saponin 1]	–	–	–	–	–	–	stronger apoptosis than the positive control DOX	next and stronger apoptosis than the positive control DOX	G2/M phase	IC50 (A549): 980 ± 10 nM; IC50 (BEAS-2B): 1190 ± 10 nM; IC50 (SK-HEP-1): 900 ± 40 nM; apoptosis rate (induction of apoptosis, in words) (SMMC-7721 cells): stronger apoptosis than the positive control DOX; apoptosis rate (induction of apoptosis, in words) (SMMC-7721 cells; listed as Saponin 1): most effective in inducing apoptosis; apoptosis rate (induction of apoptosis, in words) (A549 cells [1]; listed as Saponin 1): most effective in inducing apoptosis; IC50 (SMMC-7721): 760 ± 30 nM; apoptosis rate (induction of apoptosis, in words) (HepG2 cells [2]; listed as Saponin 1): also effective; increase of proportion of cells in S phase compared to DMSO control (HepG2 cells [3]): 23.7%; IC50 (LO2): 1790 ± 100 nM; IC50 (HepG2): 1780 ± 10 nM
